Laboratory results taken from patent US8492568B2, “Chromane derivatives as TRPV3 modulators” (Glenmark Pharamceuticals S.A., priority 2008, dated 2013).

Biological target: Human TRPV3 (Homo sapiens (Human), UniProt Q8NET8)
Assay: Screening for TRPV3 antagonist using the 45Calcium uptake assay
Type: cell-based
Details: 2-APB (500 μM) induced 45Ca uptake, human TRPV3 expressing CHO cells
From the text: The illustrative examples of the present invention are screened for TRPV3 activity according to a modified procedure described in Tóth, A., Kedei, N., Wang, Y. and Blumberg, P. M. Life Sciences (2003), 73, 487-498. The screening of the compounds can be carried out by other methods and procedures known to a person skilled in the art. Such screening methods may be found in (a) Hu, H.-Z. et al. J. Biol. Chem. (2004), 279, 35741-35747; (b) Smith, G. D. et al. Nature (2002), 418, 186-190; (c) Peier, A. M. et al. Science (2002), 296, 2046-2049.
Screening for TRPV3 Antagonist Using the ^45Calcium Uptake Assay:
The inhibition of TRPV3 receptor activation was followed as inhibition of 2-aminoethoxydiphenylborate (2-APB) induced cellular uptake of radioactive calcium. Test compounds were dissolved in dimethyl sulfoxide (DMSO) to prepare 20 mM stock solution and then diluted using plain medium with DMEM/F-12 containing 1.8 mM CaCl2 to get desired concentration. Final concentration of DMSO in the reaction was 0.5% (v/v). Human TRPV3 expressing CHO cells were grown in DMEM/F-12 medium with 10% FBS, 1% penicillin-streptomycin solution, 400 μg/ml of G-418. […] Radioactivity in the lysate was measured in Packardt Top count after addition of liquid scintillant. […] IC50 value was calculated from concentration response curve by nonlinear regression analysis using GraphPad PRISM software.

Human TRPV3, sequence (Q8NET8 whole entry): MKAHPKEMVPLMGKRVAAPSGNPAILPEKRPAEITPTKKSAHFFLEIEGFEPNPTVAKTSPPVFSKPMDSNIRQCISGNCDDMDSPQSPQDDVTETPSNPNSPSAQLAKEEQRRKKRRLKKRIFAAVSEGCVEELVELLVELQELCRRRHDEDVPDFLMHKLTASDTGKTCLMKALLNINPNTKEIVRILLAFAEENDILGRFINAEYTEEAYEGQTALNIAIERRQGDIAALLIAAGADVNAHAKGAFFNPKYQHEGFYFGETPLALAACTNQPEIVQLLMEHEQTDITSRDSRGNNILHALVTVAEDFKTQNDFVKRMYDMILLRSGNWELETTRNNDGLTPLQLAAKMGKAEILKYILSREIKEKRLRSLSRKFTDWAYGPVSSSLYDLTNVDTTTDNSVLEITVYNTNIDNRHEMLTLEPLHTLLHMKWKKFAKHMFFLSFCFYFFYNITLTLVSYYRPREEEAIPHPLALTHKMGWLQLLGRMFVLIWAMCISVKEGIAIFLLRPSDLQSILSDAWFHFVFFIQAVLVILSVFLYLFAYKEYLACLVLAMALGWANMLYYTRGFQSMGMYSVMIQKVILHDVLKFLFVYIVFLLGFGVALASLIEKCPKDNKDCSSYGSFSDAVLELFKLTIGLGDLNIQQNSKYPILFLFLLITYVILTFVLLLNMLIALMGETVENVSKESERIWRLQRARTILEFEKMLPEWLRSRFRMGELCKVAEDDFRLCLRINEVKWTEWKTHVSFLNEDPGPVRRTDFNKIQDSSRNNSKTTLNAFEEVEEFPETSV

## COc1cccc(CNC(=O)CC2CC3(CCC3)Oc3ccc(Cl)cc32)c1OC1CCCC1 (stereo not shown) [Example 2, 2-(6-Chloro-3,4-dihydrospiro[chromene-2,1′-cyclobutan]-4-yl)-N-(2-cyclopentyloxy-3-methoxybenzyl)acetamide]
  IC50: 725.3 n.M
